Experimental data taken from patent publication US7375083B2, “Pharmaceutical compositions for prevention of overdose or abuse” (Shire LLC, priority 2003, dated 2008).
Like-named read-outs stand apart in the source and are kept apart here.

How the values were obtained:
[1] = Intravenous bioavailability in rats, plasma d-amphetamine by ELISA; settings: relative to amphetamine
[2] = cited from earlier work; for Blood level: 12.5 mg dose
[3] = Oral pharmacokinetics in rats, plasma d-amphetamine by ELISA; settings: Oral, relative to amphetamine (first value where two are given)
[4] = Kitchen tests: release of amphetamine by water, acid, base and heat; settings: heated to boiling for 20-60 minutes
[5] = Oral plasma levels of oxycodone conjugates in rats, ELISA; settings: oral 2 mg/kg
[6] = Intranasal plasma levels of oxycodone conjugates in rats, ELISA; settings: intranasal 2 mg/kg
[7] = Intranasal bioavailability of hydrocodone conjugates in rats, LC/MS/MS; settings: male, Sprague-Dawley, rat, plasma, 1 mg/kg
[8] = Intravenous bioavailability of hydrocodone conjugates in rats, LC/MS/MS
[9] = Oral bioavailability of hydrocodone conjugates in rats, LC/MS/MS; settings: male, Sprague-Dawley, rat, plasma, po
[10] = Intravenous bioavailability of oxycodone conjugates in rats, LC/MS/MS; settings: 1 mg/kg dose; for AUC 0-1 h / AUC Percent OC / Cmax / Cmax Percent OC: oxycodone plus oxymorphone
[11] = Intranasal bioavailability of oxycodone conjugates in rats, LC/MS/MS; settings: 1 mg/kg dose
[12] = intravenous, 1 mg/kg hydrocodone base content
[13] = male, Sprague-Dawley, rat, plasma, iv, 1 mg/kg

Molecule: CC(Cc1ccccc1)NC(=O)C(N)Cc1ccccc1 (stereo not shown) [F-Amp]
- Percent AUC [1]: 87%
- Percent Cmax [1]: 89%

Molecule: CN[C@@H](C)Cc1ccccc1 [methamphetamine]
- Urine concentration ([2]; 10 mg, first 24 hours): 500-4,000 ng/mL
- Blood level ([2]; 6 hours): about 16 ng/mL
- Blood level ([2]; 24 hours): about 10 ng/mL
- Amphetamine concentration of methamphetamine abusers, average ([2]; abusers): 1,800 ng/mL
- Methamphetamine concentration of methamphetamine abusers, average ([2]; abusers): 14,200 ng/mL
- Amphetamine concentration of methamphetamine abusers ([2]; abusers, range): 1,000-9,000 ng/mL
- Methamphetamine concentration of methamphetamine abusers ([2]; abusers, range): 2,400-33,300 ng/mL
- Estimated lethal dose ([2]; adults): 1 g
- Estimated lethal dose ([2]; children): 0.1 g
- Maximum blood concentration ([2]; single dose of 10 mg, one hour): 30 ng/mL

Molecule: C[C@@H](Cc1ccccc1)NC(=O)[C@@H](N)CCCCN [K-Amp]
- Percent AUC [3]: 98%
- Percent Cmax [3]: 55%
- Percent AUC [1]: 3%
- Percent Cmax [1]: 3%

Molecule: CC(Cc1ccccc1)NC(=O)C(O)C(O)C(O)C(O)CO (stereo not shown) [Gulonate-Amp]
- Percent AUC [3]: 1%
- Percent Cmax [3]: 1%
- Percent AUC [1]: 3%
- Percent Cmax [1]: 5%

Molecule: CC(Cc1ccccc1)NC(=O)CNC(=O)CNC(=O)CN (stereo not shown) [Gly3-Amp, 2-Amino-N-({[(1-methyl-2-phenyl-ethylcarbomyl)-methyl]-carbomyl}-methyl)-acetamide]
- amphetamine detected after treatment: Baking Powder [4]: 0%
- amphetamine detected after treatment: Baking Soda [4]: 0%
- amphetamine detected after treatment: Tap Water [4]: 0%
- amphetamine detected after treatment: Vinegar [4]: 0%

Molecule: COc1ccc2c3c1O[C@H]1C(OC(=O)[C@@H](NC(=O)[C@H](Cc4ccc(O)cc4)NC(=O)[C@@H](N)CCC(=O)O)C(C)C)=CC[C@@]4(OC(=O)[C@@H](NC(=O)[C@H](Cc5ccc(O)cc5)NC(=O)[C@@H](N)CCC(=O)O)C(C)C)[C@@H](C2)N(C)CC[C@]314 [[Glu-Tyr-Val]2-OC]
- % AUC [5]: 115%
- % Cmax [5]: 103%
- % AUC [6]: 18%
- % Cmax [6]: 20%

Molecule: COc1ccc2c3c1O[C@H]1C(OC(=O)[C@@H](NC(=O)[C@@H]4CCCN4C(=O)[C@@H](N)CCC(=O)O)C(C)C)=CC[C@@]4(OC(=O)[C@@H](NC(=O)[C@@H]5CCCN5C(=O)[C@@H](N)CCC(=O)O)C(C)C)[C@@H](C2)N(C)CC[C@]314 [[Glu-Pro-Val]2-OC]
- % AUC [5]: 142%
- % Cmax [5]: 134%
- % AUC [6]: 56%
- % Cmax [6]: 65%

Molecule: COc1ccc2c3c1O[C@H]1C(OC(=O)[C@@H](NC(=O)[C@H](Cc4ccc(O)cc4)NC(=O)[C@@H](N)CC(C)C)C(C)C)=CC[C@@]4(OC(=O)[C@@H](NC(=O)[C@H](Cc5ccc(O)cc5)NC(=O)[C@@H](N)CC(C)C)C(C)C)[C@@H](C2)N(C)CC[C@]314 [[Leu-Tyr-Val]2-OC]
- % AUC [5]: 131%
- % Cmax [5]: 120%
- % AUC [6]: 4%
- % Cmax [6]: 5%

Molecule: COc1ccc2c3c1O[C@H]1C(=O)CC[C@H]4[C@@H](C2)N(C)CC[C@]314 [Hydrocodone, reference compound]
- AUC ([7]; iv): 74.7 ng·h/mL
- Cmax ([7]; iv): 543 ng/mL
- concentration at 0 min ([7]; other: intranasal): 0 ng/mL
- concentration at 5 min ([7]; other: intranasal): 441 ng/mL
- concentration at 15 min ([7]; other: intranasal): 543 ng/mL
- concentration at 30 min ([7]; other: intranasal): 227 ng/mL
- concentration at 60 min ([7]; other: intranasal): 96 ng/mL
- HC (hydrocodone) AUC, Percent relative to hydrocodone bitartrate [8, 12]: 100%
- HC (hydrocodone) Cmax, Percent relative to hydrocodone bitartrate [8, 12]: 100%
- AUC [8, 13]: 24.1 ng·h/mL
- Cmax [8, 13]: 43 ng/mL
- Therapeutic plasma concentration ([2]; in vivo): 1 to 30 ng/mL
- Toxic plasma concentration ([2]; in vivo): greater than 100 ng/mL
- AUC ([9]; 1 mg/kg): 45.1 ng·h/mL
- Cmax ([9]; 1 mg/kg): 114 ng/mL
- concentration at 0 h ([9]; 1 mg/kg): 0 ng/mL
- concentration at 0.1 h ([9]; 1 mg/kg): 114 ng/mL
- concentration at 0.5 h ([9]; 1 mg/kg): 14.3 ng/mL
- concentration at 1 h ([9]; 1 mg/kg): 7 ng/mL
- concentration at 2 h ([9]; 1 mg/kg): 2.6 ng/mL
- concentration at 4 h ([9]; 1 mg/kg): 1 ng/mL
- AUC ([9]; 2 mg/kg): 38.2 ng·h/mL
- Cmax ([9]; 2 mg/kg): 60.3 ng/mL
- concentration at 0 h ([9]; 2 mg/kg): 0 ng/mL
- concentration at 0.1 h ([9]; 2 mg/kg): 60.3 ng/mL
- concentration at 0.5 h ([9]; 2 mg/kg): 15.6 ng/mL
- concentration at 1 h ([9]; 2 mg/kg): 12.9 ng/mL
- concentration at 2 h ([9]; 2 mg/kg): 3.4 ng/mL
- concentration at 4 h ([9]; 2 mg/kg): 1.3 ng/mL
- AUC ([9]; 5 mg/kg): 234 ng·h/mL
- Cmax ([9]; 5 mg/kg): 629 ng/mL
- concentration at 0 h ([9]; 5 mg/kg): 0 ng/mL
- concentration at 0.1 h ([9]; 5 mg/kg): 629 ng/mL
- concentration at 0.5 h ([9]; 5 mg/kg): 74.3 ng/mL
- concentration at 1 h ([9]; 5 mg/kg): 80.8 ng/mL
- concentration at 2 h ([9]; 5 mg/kg): 18.4 ng/mL
- concentration at 4 h ([9]; 5 mg/kg): 4.9 ng/mL
- AUC ([9]; 25 mg/kg): 419 ng·h/mL
- Cmax ([9]; 25 mg/kg): 409 ng/mL
- concentration at 0 h ([9]; 25 mg/kg): 0 ng/mL
- concentration at 0.1 h ([9]; 25 mg/kg): 409 ng/mL
- concentration at 0.5 h ([9]; 25 mg/kg): 154 ng/mL
- concentration at 1 h ([9]; 25 mg/kg): 86.2 ng/mL
- concentration at 2 h ([9]; 25 mg/kg): 83.3 ng/mL
- concentration at 4 h ([9]; 25 mg/kg): 57.8 ng/mL

Molecule: CC[C@H](C)[C@H](N)C(=O)N[C@@H](Cc1ccc(O)cc1)C(=O)N[C@H](C(=O)OC1=CC[C@@]2(OC(=O)[C@@H](NC(=O)[C@H](Cc3ccc(O)cc3)NC(=O)[C@@H](N)[C@@H](C)CC)C(C)C)[C@H]3Cc4ccc(OC)c5c4[C@@]2(CCN3C)[C@H]1O5)C(C)C [[Ile-Tyr-Val]2-OC]
- % AUC [5]: 71%
- % Cmax [5]: 82%
- % AUC [6]: 3%
- % Cmax [6]: 4%

Molecule: CC(N)Cc1ccccc1 (stereo not shown) [amphetamine]
- Steady-state blood level ([2]; addicts orally consuming an average of 1000 mg per day): 2000 to 3000 ng/mL
- Blood level at which peripheral effects (increased heart rate) start ([2]; in vivo): 20 ng/mL
- Peak blood concentration ([2]; single oral dose of 10 mg, 2 hours): 35 ng/mL

Molecule: COc1ccc2c3c1O[C@H]1C(OC(=O)[C@@H](NC(=O)[C@H](Cc4ccc(O)cc4)NC(=O)CN)C(C)C)=CC[C@@]4(OC(=O)[C@@H](NC(=O)[C@H](Cc5ccc(O)cc5)NC(=O)CN)C(C)C)[C@@H](C2)N(C)CC[C@]314 [[Gly-Tyr-Val]2-OC]
- % AUC [5]: 92%
- % Cmax [5]: 99%
- % AUC [6]: 56%
- % Cmax [6]: 54%

Molecule: COc1ccc2c3c1O[C@H]1C(OC(=O)[C@@H](NC(=O)CNC(=O)[C@@H](N)CO)C(C)C)=CC[C@@]4(OC(=O)[C@@H](NC(=O)CNC(=O)[C@@H](N)CO)C(C)C)[C@@H](C2)N(C)CC[C@]314 [[Ser-Gly-Val]2-OC]
- % AUC [5]: 90%
- % Cmax [5]: 92%
- % AUC [6]: 64%
- % Cmax [6]: 73%

Molecule: COc1ccc2c3c1O[C@H]1C(OC(=O)[C@H](CC(C)C)NC(=O)[C@@H]4CCCN4C(=O)[C@@H]4CCCN4)=CC[C@@]4(OC(=O)[C@H](CC(C)C)NC(=O)[C@@H]5CCCN5C(=O)[C@@H]5CCCN5)[C@@H](C2)N(C)CC[C@]314 [[PPL]2-OC, [PPL]2-Oxycodone]
- Oxycodone plus oxymorphone level at 5 Minutes [10]: 22
- Oxycodone plus oxymorphone level at 15 Minutes [10]: 19
- Oxycodone plus oxymorphone level at 30 Minutes [10]: 19
- Oxycodone plus oxymorphone level at 60 Minutes [10]: 43
- AUC 0-1 h [10]: 24 ng·h/mL
- AUC Percent OC [10]: 29%
- Cmax [10]: 43 ng/mL
- Cmax Percent OC [10]: 43%
- Oxycodone plus oxymorphone level at 5 Minutes [11]: 1380
- Oxycodone plus oxymorphone level at 15 Minutes [11]: 499
- Oxycodone plus oxymorphone level at 30 Minutes [11]: 390
- Oxycodone plus oxymorphone level at 60 Minutes [11]: 98
- AUC Percent OC ([11]; oxycodone plus oxymorphone): 61%
- Cmax Percent OC ([11]; oxycodone plus oxymorphone): 65%

Molecule: COc1ccc2c3c1O[C@H]1C(OC(=O)[C@@H](NC(=O)[C@H](CCC(=O)O)NC(=O)CN)C(C)C)=CC[C@@]4(OC(=O)[C@@H](NC(=O)[C@H](CCC(=O)O)NC(=O)CN)C(C)C)[C@@H](C2)N(C)CC[C@]314 [[Gly-Glu-Val]2-OC]
- % AUC [5]: 93%
- % Cmax [5]: 61%
- % AUC [6]: 29%
- % Cmax [6]: 48%

Molecule: COc1ccc2c3c1O[C@H]1C(=O)CC[C@@]4(O)[C@@H](C2)N(C)CC[C@]314 [Oxycodone]
- Therapeutic plasma concentration ([2]; in vivo): 10 to 100 ng/mL
- Toxic plasma concentration ([2]; in vivo): greater than 200 ng/mL

Molecule: COc1ccc2c3c1O[C@H]1C(OC(=O)[C@@H](NC(=O)[C@H](CCC(=O)O)NC(=O)[C@@H]4CCCN4)C(C)C)=CC[C@@]4(OC(=O)[C@@H](NC(=O)[C@H](CCC(=O)O)NC(=O)[C@@H]5CCCN5)C(C)C)[C@@H](C2)N(C)CC[C@]314 [[Pro-Glu-Val]2-OC]
- % AUC [5]: 90%
- % Cmax [5]: 82%
- % AUC [6]: 34%
- % Cmax [6]: 46%

Molecule: Oxycodone Bitartrate
- Oxycodone plus oxymorphone level at 5 Minutes [10]: 99
- Oxycodone plus oxymorphone level at 15 Minutes [10]: 104
- Oxycodone plus oxymorphone level at 30 Minutes [10]: 94
- Oxycodone plus oxymorphone level at 60 Minutes [10]: 51
- AUC 0-1 h [10]: 82 ng·h/mL
- AUC Percent OC [10]: 100%
- Cmax [10]: 99 ng/mL
- Cmax Percent OC [10]: 100%
- Oxycodone plus oxymorphone level at 5 Minutes [11]: 2128
- Oxycodone plus oxymorphone level at 15 Minutes [11]: 1003
- Oxycodone plus oxymorphone level at 30 Minutes [11]: 688
- Oxycodone plus oxymorphone level at 60 Minutes [11]: 278
- AUC 0-1 h ([11]; oxycodone plus oxymorphone): 428 ng·h/mL
- AUC Percent OC ([11]; oxycodone plus oxymorphone): 100%
- Cmax ([11]; oxycodone plus oxymorphone): 2128 ng/mL
- Cmax Percent OC ([11]; oxycodone plus oxymorphone): 100%
